For data set [1], the system named is NRF2 (nuclear factor erythroid 2-related factor 2). In words: NRF2 +/-GSH activation assay (DiscoverX PathHunter NRF2 translocation kit, U2OS cells). Type of data set: cell-based. The conditions noted are these: for Emax (%) +GSH / Emax (%) −GSH: normalised to dimethyl fumarate high control.
Data set [2] relates to IL-1β cytokine output from THP-1s. Nature of the data set: THP-1 AlphaLISA IL-1β cytokine assay. Type of data set: cell-based. The method, then:
(§1) The cytokine inhibition profiles of compounds of formula (I) were determined in a differentiated THP-1 cell assay. All assays were performed in RPMI-1640 growth medium (Gibco), supplemented with 10% fetal bovine serum (FBS; Gibco), 1% penicillin-streptomycin and 1% sodium pyruvate unless specified otherwise. The IL-1β and IL-6 cytokine inhibition assays were each run in a background of differentiated THP-1 cells as described below. All reagents described were from Sigma-Aldrich unless specified otherwise. Compounds were prepared as 10 mM DMSO stocks.
(§2) THP-1 cells were expanded as a suspension up to 80% confluence in appropriate growth medium. Cells were harvested, suspended, and treated with an appropriate concentration of phorbol 12-myristate 13-acetate (PMA) over a 72 hr period (37° C./5% CO2).
(§3) Following 72 hrs of THP-1 cell incubation, cellular medium was removed and replaced with fresh growth media containing 1% of FBS. Working concentrations of compounds were prepared separately in 10% FBS treated growth medium and pre-incubated with the cells for 30 minutes (37° C./5% CO2). Following the 30 minute compound pre-incubation, THP-1s were treated with an appropriate concentration of LPS and the THP-1s were subsequently incubated for a 24 hr period (37° C./5% CO2). An appropriate final concentration of Nigericin was then dispensed into the THP-1 plates and incubated for 1 hour (37° C./5% CO2) before THP-1 supernatants were harvested and collected in separate polypropylene 96-well holding plates.
(§4) Reagents from each of the IL-1β and IL-6 commercial kits (Perkin Elmer) were prepared and run according to the manufacturer's instructions. Subsequently, fluorescence signal detection in a microplate reader was measured (EnVision® Multilabel Reader, Perkin Elmer).
(§5) Percentage inhibition was calculated per cytokine by normalising the sample data to the high and low controls used within each plate (+/− LPS respectively). Percentage inhibition was then plotted against compound concentration and the 50% inhibitory concentration (IC50) was determined from the resultant concentration-response curve.

Data set [3] relates to human hepatocytes. Nature of the data set: Hepatocyte stability assay, human. Type of data set: in vitro ADME. The conditions noted are these: 10 μM compound. The text has this:
(§6) Defrosted cryo-preserved hepatocytes (viability >70%) were used to determine the metabolic stability of a compound via calculation of intrinsic clearance (Clint; a measure of the removal of a compound from the liver in the absence of blood flow and cell binding). Clearance data are particularly important for in vitro work as they can be used in combination with in vivo data to predict the half-life and oral bioavailability of a drug.
(§7) The metabolic stability in hepatocytes assay involves a time-dependent reaction using both positive and negative controls. The cells were pre-incubated at 37° C. and spiked with test compound (and positive control); samples were taken at pre-determined time intervals were analysed to monitor the change in concentration of the initial drug compound over 60 minutes. A buffer incubation reaction (with no hepatocytes present) acted as a negative control and two cocktail solutions, containing compounds with known high and low clearance values (verapamil/7-hydroxycoumarin and propranolol/diltiazem), acted as positive controls. • 1. The assay was run with a cell concentration of 0.5×10^6 cells/mL in Leibovitz buffer. • 2. All compounds and controls were run in duplicate. • 3. Compound concentration was 10 μM. • 4. All compounds and controls were incubated with both cells and buffer to show turnover was due to hepatic metabolism. • 5. All wells on the incubation plate had 326.7 μL of either cells or buffer added. • 6. Prior to assay, cell and buffer-only incubation plates were preincubated for 10 mins at 37° C. • 7. The assay was initiated by adding compounds, 3.3 μL of 1 mM in 10% DMSO-90% Buffer; final DMSO concentration was 0.1%. • 8. Samples were taken at regular timepoints (0, 5, 10, 20, 40, 60 min) until 60 mins. • 9. Sample volume was 40 μL and was added to 160 μL of crash solvent (acetonitrile with internal standard) and stored on ice. • 10. At the end of the assay, the crash plates were centrifuged at 3500 rpm for 20 mins at 4° C. • 11. 80 μL of clear supernatant was removed and mixed with 80 μL of deionised water before being analysed by LC-MS/MS.
(§8) Raw LC-MS/MS data was exported to, and analysed in, Microsoft Excel for determination of intrinsic clearance. The percentage remaining of a compound was monitored using the peak area of the initial concentration as 100%. Intrinsic clearance and half-life values were calculated using a graph of the natural log of percentage remaining versus the time of reaction in minutes. Half-life (min) and intrinsic clearance (Clint in μL min^−1 10^−6 cells) values were calculated using the gradient of the graph (the elimination rate constant, k) and Equations 1 and 2.

Data set [4] deals with mouse hepatocytes. Nature of the data set: Hepatocyte stability assay, mouse. The data set is classed as in vitro ADME. The note with it: 10 μM compound.
From the text: as §6, §7, §8

Data set [5] deals with IL-6 cytokine output from THP-1s. Nature of the data set: THP-1 AlphaLISA IL-6 cytokine assay. Type of data set: cell-based. The note with it: Homo sapiens, THP-1, differentiated THP-1 cells, LPS then nigericin; Table 1. The method, then:
as §1, §2, §3, §4, §5

[6] abbreviates: differentiated THP-1 cells, LPS then nigericin, Table 1.
The mark [7] stands for this setting: Homo sapiens, THP-1, differentiated THP-1 cells, LPS then nigericin, Table 1.
Where [8] appears, read: Homo sapiens, THP-1, differentiated THP-1 cells, Table 2, compounds of formula (XVI).
[9] abbreviates: differentiated THP-1 cells, Table 2, compounds of formula (XVI).

The values below come from patent publication US12678419B2, “Compounds” (Sitryx Therapeutics Limited, priority 2020, dated 2026).

The EC50 is the concentration at which the effect is half-maximal. Low readings indicate an effect from little substance, high ones a need for much substance. For orientation: IC50 means the concentration that inhibits the measured activity by half. Lower therefore signals higher potency.

`C=C(CC(=O)OC1CCc2cc(Cl)c(Cl)cc21)C(=O)OCC(=O)O` (single isomer, unassigned; enantiomer 2) [Example 6, 2-((4-((5,6-dichloro-2,3-dihydro-1H-inden-1-yl)oxy)-2-methylene-4-oxobutanoyl)oxy)acetic acid (Enantiomer 2)]: in data set [1] (+GSH), the response was half-maximal at 17.4 µM (EC50) and the “Emax (%) +GSH” value came out at 215%. For the same compound, in data set [1] (−GSH), the EC50 was found to be 8.3 µM and the “Emax (%) −GSH” value is on record as 242%. Also, the IC50 in data set [2] (setting [6]) worked out at 9.9 µM. In addition, in data set [3], the “Clint (μL min^−1 10^−6 cells)” value amounted to 8 μL min^−1 10^−6 cells and the “T½” value worked out at 207 min. Besides, in data set [4], the “Clint (μL min^−1 10^−6 cells)” value was determined as 69 μL min^−1 10^−6 cells and the “T½” value is 19 min.

As to `C=C(CC(=O)OCCCCCCCC)C(=O)O` [4-octyl itaconate, reference compound], in data set [3], the “Clint (μL min^−1 10^−6 cells)” value is 401 μL min^−1 10^−6 cells and the “T½” value is given as 4 min. Also, in data set [4], the “Clint (μL min^−1 10^−6 cells)” value was 351 μL min^−1 10^−6 cells and the “T½” value worked out at 4 min.

Compound `C=C(CC(=O)OC1CCc2cc(Br)c(OC)cc21)C(=O)OCC(=O)O` (single isomer, unassigned; enantiomer 1) [Example 12, 2-((4-((5-bromo-6-methoxy-2,3-dihydro-1H-inden-1-yl)oxy)-2-methylene-4-oxobutanoyl)oxy)acetic acid (Enantiomer 1)] came in with a half-maximal inhibitory concentration (IC50) in data set [2] (setting [7]) of 46.4 µM.

Compound `C=C(CC(=O)OC1CCc2cc(C(F)(F)F)ccc21)C(=O)O` (centres unmarked) [Intermediate 37, 2-methylene-4-oxo-4-((5-(trifluoromethyl)-2,3-dihydro-1H-inden-1-yl)oxy)butanoic acid] had an IC50 in data set [2] (setting [8]) of 18.3 µM.

In turn, `C=C(CC(=O)OC1CCCc2cc(C(F)(F)F)ccc21)C(=O)O` (single isomer, unassigned; enantiomer 2) [Intermediate 41, 2-methylene-4-oxo-4-((6-(trifluoromethyl)-1,2,3,4-tetrahydronaphthalen-1-yl)oxy)butanoic acid (Enantiomer 2)] registered an IC50 in data set [2] (setting [9]) of 31.7 µM.

On to `C=C(CC(=O)OC)C(=O)OC` [dimethyl itaconate, reference compound], for which the IC50 in data set [2] (setting [7]), in data set [2] (setting [8]) and in data set [5] was greater than 100 µM each time.

For `C=C(CC(=O)OC1CCc2cc(Cl)cc(Cl)c21)C(=O)OCC(=O)O` (single isomer, unassigned; enantiomer 1) [Example 8, 2-((4-((5,7-dichloro-2,3-dihydro-1H-inden-1-yl)oxy)-2-methylene-4-oxobutanoyl)oxy)acetic acid (Enantiomer 1)], in data set [1] (+GSH), the midpoint of the response, the EC50, lay at 16.4 µM and the “Emax (%) +GSH” value turned out to be 264%. Also, in data set [1] (−GSH), the EC50 amounted to 4.8 µM and the “Emax (%) −GSH” value stood at 268%. For the same compound, it took 10.6 µM to reach half-maximal inhibition in data set [2] (setting [7]) (IC50). Moreover, in data set [3], the “Clint (μL min^−1 10^−6 cells)” value was 15 μL min^−1 10^−6 cells and the “T½” value is given as 106 min. Besides, in data set [4], the “Clint (μL min^−1 10^−6 cells)” value is on record as 316 μL min^−1 10^−6 cells and the “T½” value is 4 min.

Compound `C=C(CC(=O)OC1CCc2cc(Br)c(OC)cc21)C(=O)OCC(=O)O` (single isomer, unassigned; enantiomer 2) [Example 13, 2-((4-((5-bromo-6-methoxy-2,3-dihydro-1H-inden-1-yl)oxy)-2-methylene-4-oxobutanoyl)oxy)acetic acid (Enantiomer 2)] displayed an IC50 in data set [2] (setting [6]) of 34.9 µM.

In the case of `C=C(CC(=O)OC1CCc2cc(Cl)cc(Cl)c2C1)C(=O)OCC(=O)O` (single isomer, unassigned; enantiomer 2) [Example 11, 2-((4-((6,8-dichloro-1,2,3,4-tetrahydronaphthalen-2-yl)oxy)-2-methylene-4-oxobutanoyl)oxy)acetic acid (Enantiomer 2)], the midpoint of inhibition in data set [2] (setting [6]), the IC50, lay at 6.1 µM. In addition, in data set [3], the “Clint (μL min^−1 10^−6 cells)” value is given as 24 μL min^−1 10^−6 cells and the “T½” value was 62 min. In data set [4], the “Clint (μL min^−1 10^−6 cells)” value was 311 μL min^−1 10^−6 cells and the “T½” value came to 5 min.

Take `C=C(CC(=O)OC1CCc2c(Cl)cc(Cl)cc21)C(=O)O` (single isomer, unassigned; enantiomer 1) [Intermediate 25, 4-((4,6-dichloro-2,3-dihydro-1H-inden-1-yl)oxy)-2-methylene-4-oxobutanoic acid Enantiomer 1]: the IC50 in data set [2] (setting [8]) was determined as 43.2 µM.

As for `C=C(CC(=O)OC1CCCc2cc(C(F)(F)F)ccc21)C(=O)O` (single isomer, unassigned; enantiomer 1) [Intermediate 40, 2-methylene-4-oxo-4-((6-(trifluoromethyl)-1,2,3,4-tetrahydronaphthalen-1-yl)oxy)butanoic acid (Enantiomer 1)], it took 5.3 µM to reach half-maximal inhibition in data set [2] (setting [9]) (IC50).

In the case of `C=C(CC(=O)OC1CCc2c(Br)cc(F)cc21)C(=O)OCC(=O)O` (single isomer, unassigned; enantiomer 2) [Example 16, 2-((4-((4-bromo-6-fluoro-2,3-dihydro-1H-inden-1-yl)oxy)-2-methylene-4-oxobutanoyl)oxy)acetic acid (Enantiomer 2)], the IC50 in data set [2] (setting [6]) came to 2.6 µM. In data set [3], the “Clint (μL min^−1 10^−6 cells)” value amounted to 15 μL min^−1 10^−6 cells and the “T½” value worked out at 95 min. In data set [4], the “Clint (μL min^−1 10^−6 cells)” value is given as greater than 460 μL min^−1 10^−6 cells and the “T½” value is recorded as less than 3 min.

As for `C=C(CC(=O)OC1CCc2cc(Cl)cc(Cl)c21)C(=O)OCC(=O)O` (single isomer, unassigned; enantiomer 2) [Example 9, 2-((4-((5,7-dichloro-2,3-dihydro-1H-inden-1-yl)oxy)-2-methylene-4-oxobutanoyl)oxy)acetic acid (Enantiomer 2)], in data set [1] (+GSH), the EC50 amounted to 20.6 µM and the “Emax (%) +GSH” value was 204%. Also, in data set [1] (−GSH), the EC50 came out at 8.1 µM and the “Emax (%) −GSH” value is 244%. Further, it took 11.7 µM to reach half-maximal inhibition in data set [2] (setting [6]) (IC50). For the same compound, in data set [3], the “Clint (μL min^−1 10^−6 cells)” value is reported as 4 μL min^−1 10^−6 cells and the “T½” value came to 428 min. Further, in data set [4], the “Clint (μL min^−1 10^−6 cells)” value is on record as 61 μL min^−1 10^−6 cells and the “T½” value amounted to 21 min.

Regarding `C=C(CC(=O)OC1CCc2c(Cl)cc(F)cc21)C(=O)OCC(=O)O` (single isomer, unassigned; enantiomer 1) [Example 19, 2-((4-((4-chloro-6-fluoro-2,3-dihydro-1H-inden-1-yl)oxy)-2-methylene-4-oxobutanoyl)oxy)acetic acid (Enantiomer 1)], in data set [1] (+GSH), the EC50 came out at 10.1 µM and the “Emax (%) +GSH” value was 48%. For the same compound, in data set [1] (−GSH), the EC50 is 18.1 µM and the “Emax (%) −GSH” value is on record as 224%. In data set [2] (setting [7]), the midpoint of inhibition, the IC50, lay at 2.2 µM. Further, in data set [3], the “Clint (μL min^−1 10^−6 cells)” value stood at 4 μL min^−1 10^−6 cells and the “T½” value was found to be 335 min. Further, in data set [4], the “Clint (μL min^−1 10^−6 cells)” value worked out at 37 μL min^−1 10^−6 cells and the “T½” value is given as 41 min.
